This is an account of results in patent US10092529B2, “Necrosis inhibitors” (National Institute of Biological Sciences, Beijing, priority 2014, dated 2018).

This experiment concerns HT-29 cells. The experiment can be described thus: Necrosis assay: TNF-α/Smac mimetic/z-VAD induced necrosis, cell viability by CellTiter-Glo. The settings on record: inhibition of necrosis, ATP levels, read-out: EC50 (necrosis activity). It is filed as cell-based. The procedure:
HT-29 cells were cultured in McCoy's 5A culture medium (Invitrogen). On day one, HT-29 cells were plated in 96-well assay plates at density of 2,500-3,500 cells per well. On day two, necrosis were induced by adding 20 ng/ml TNF-α (T), 100 nM Smac mimetic (S), and […] z-VAD (Z). At the same time, […] compound from a chemical library of ˜200,000 compounds was delivered into each well. After 24 hrs treatment, cell viability was determined by measuring ATP level using the CellTiter-Glo Luminescent Cell Viability Assay kit. A CellTiter-Glo Assay (Promega) was performed according to the manufacturer's instructions Luminescence was recorded with a PerkinElmer EnSpire Multimode Plate Reader. Survived cells were normalized to those cells treated with DMSO. Nec-1 was used as a positive control for screening necrosis inhibitors. Data are represented as mean±standard deviation of duplicates.
Dose-dependent inhibition of necrosis by compound #9 and the derivative compounds in HT-29 cells were determined by measuring ATP levels as described above.
For orientation: In ATP-based viability assays light output follows the ATP content of the culture.

Setting [1] is: Homo sapiens, range given in uM.

The structures appear in SMILES notation. Where two headings read alike, the source gives them in different places.

As usually defined, the EC50 is the concentration at which the effect is half-maximal. Consider `CCC(C)(C)C(=O)N1CC1c1ccccc1` (stereo not shown) [Compound 1, 2,2-dimethyl-1-(2-phenylaziridin-1-yl)butan-1-one], for which the 50% effective concentration (EC50) under setting [1] lay within 1 to 100 µM.
In the case of `CCC(C)(C)C(=O)N1CC[C@H]1c1ccccc1` [Compound 3, (S)-2,2-dimethyl-1-(2-phenylazetidin-1-yl)butan-1-one], the EC50 (range given in nM) was 0.001 to 1 µM.
`CCC(C)(C)C(=O)N1CCCC1c1ccccc1` (stereo not shown) [Compound 4, 2,2-dimethyl-1-(2-phenylpyrrolidin-1-yl)butan-1-one]: the EC50 (range given in nM) is 0.001 to 1 µM.
Take `CCC(C)(C)C(=O)N1CCCC1C1CCCCC1` (stereo not shown) [Compound 5, 1-(2-cyclohexylpyrrolidin-1-yl)-2,2-dimethylbutan-1-one]: where the note is “range given in nM”, the 50% effective concentration (EC50) is 0.001 to 1 µM.
For `CCC(C)(C)C(=O)N1CCOC1c1ccccc1` (stereo not shown) [Compound 6, 2,2-dimethyl-1-(2-phenyloxazolidin-3-yl)butan-1-one], the EC50 under setting [1] fell in the range of 1 to 100 µM.
`CCC(C)(C)C(=O)N1COC[C@@H]1c1ccccc1` [Compound 7, (S)-2,2-dimethyl-1-(4-phenyloxazolidin-3-yl)butan-1-one]: the concentration giving a half-maximal response (EC50) under setting [1] was in the range of 1 to 100 µM.
As to `CCC(C)(C)C(=O)N1COC[C@H]1c1ccccc1` [Compound 8, (R)-2,2-dimethyl-1-(4-phenyloxazolidin-3-yl)butan-1-one], for the setting “range given in nM”, the EC50 is 0.001 to 1 µM.
Turning to `CCC(C)(C)C(=O)N1CCCC1c1cccc(F)c1` (stereo not shown) [Compound 9, 1-(2-(3-fluorophenyl)pyrrolidin-1-yl)-2,2-dimethylbutan-1-one], for the setting “range given in nM”, the EC50 lay within 0.001 to 1 µM.
For `CCC(C)(C)C(=O)N1CCCCC1c1ccccc1` (stereo not shown) [Compound 11, 2,2-dimethyl-1-(2-phenylpiperidin-1-yl)butan-1-one], the concentration for a half-maximal effect (EC50) under setting [1] was 1 to 100 µM.
For the molecule `CCC(C)(C)C(=O)N1CCOCC1c1ccccc1` (stereo not shown) [Compound 12, 2,2-dimethyl-1-(3-phenylmorpholino)butan-1-one], the half-maximal effective concentration (EC50) under setting [1] lay within 1 to 100 µM.
In the case of `CCC(C)(C)C(=O)N1CC(F)(F)C1c1ccccc1` (stereo not shown) [Compound 14, 1-(3,3-difluoro-2-phenylazetidin-1-yl)-2,2-dimethylbutan-1-one], the EC50 (range given in nM) is 0.001 to 1 µM.
Consider `CCC(C)(C)C(=O)N1CC(O)C1c1ccccc1` (stereo not shown) [Compound 16, 1-(3-hydroxy-2-phenylazetidin-1-yl)-2,2-dimethylbutan-1-one], for which, under setting [1], the concentration giving a half-maximal response (EC50) lay in the range of 1 to 10 µM.
As for `CCC(C)(C)C(=O)N1CCNCC1c1ccccc1` (stereo not shown) [Compound 17, 2,2-dimethyl-1-(2-phenylpiperazin-1-yl)butan-1-one], under setting [1], the concentration giving a half-maximal response (EC50) lay in the range of 1 to 100 µM.
`CCC(C)(C)C(=O)N1CCN(C(C)=O)CC1c1ccccc1` (stereo not shown) [Compound 18, 1-(4-acetyl-2-phenylpiperazin-1-yl)-2,2-dimethylbutan-1-one]: the concentration giving a half-maximal response (EC50) under setting [1] was in the range of 1 to 100 µM.
On to `CCC(C)(C)C(=O)N1CCN(C(=O)OC(C)(C)C)CC1c1ccccc1` (stereo not shown) [Compound 19, tert-butyl 4-(2,2-dimethylbutanoyl)-3-phenylpiperazine-1-carboxylate], for which the EC50 under setting [1] fell in the range of 1 to 100 µM.
Regarding `CCC(C)(C)C(=O)N1N=CCC1c1ccccc1` (stereo not shown) [Compound 20, 2,2-dimethyl-1-(5-phenyl-4,5-dihydro-1H-pyrazol-1-yl)butan-1-one], the 50% effective concentration (EC50) (range given in nM) lay within 0.001 to 1 µM.
As for `CCC(C)(C)C(=O)N1NCCC1c1ccccc1` (stereo not shown) [Compound 21, 2,2-dimethyl-1-(5-phenylpyrazolidin-1-yl)butan-1-one], the EC50 (range given in nM) lay within 0.001 to 1 µM.
Consider `CCC(C)(C)C(=O)N1C(c2ccccc2)CCN1C` (stereo not shown) [Compound 22, 2,2-dimethyl-1-(2-methyl-5-phenylpyrazolidin-1-yl)butan-1-one], for which the concentration for a half-maximal effect (EC50) (range given in nM) fell in the range of 0.001 to 1 µM.
For `CCC(C)(C)C(=O)N1C(=O)OC[C@H]1c1ccccc1` [Compound 23, (R)-3-(2,2-dimethylbutanoyl)-4-phenyloxazolidin-2-one], the EC50 (range given in nM) lay in the range of 0.001 to 1 µM.
The same measure, in the same setting: the result for `CCC(C)(C)C(=O)N1C(=O)CC1c1cccc(Br)c1` (stereo not shown) [Compound 26, 4-(3-bromophenyl)-1-(2,2-dimethylbutanoyl)azetidin-2-one] reads 0.001 to 1 µM.
On the same count and under the same terms, then `C#Cc1cccc(C2CC(=O)N2C(=O)C(C)(C)CC)c1` (stereo not shown) [Compound 27, 1-(2,2-dimethylbutanoyl)-4-(3-ethynylphenyl)azetidin-2-one], with 0.001 to 1 µM.
Turning to `CCC(C)(C)C(=O)N1C(=O)CC1c1cccc([N+](=O)[O-])c1` (stereo not shown) [Compound 28, 1-(2,2-dimethylbutanoyl)-4-(3-nitrophenyl)azetidin-2-one], under setting [1], the EC50 was in the range of 1 to 10 µM.
In the case of `CCC(C)(C)C(=O)N1C(=O)CCC1c1ccccc1` (stereo not shown) [Compound 29, 1-(2,2-dimethylbutanoyl)-5-phenylpyrrolidin-2-one], under setting [1], the concentration giving a half-maximal response (EC50) was 1 to 100 µM.
The same measure, in the same setting: the result for `C#CCN1C[C@@H](c2ccccc2)N(C(=O)C(C)(C)CC)C1=O` [Compound 30, (R)-3-(2,2-dimethylbutanoyl)-4-phenyl-1-(prop-2-yn-1-yl)imidazolidin-2-one] reads 1 to 10 µM.
For the molecule `CCC(C)(C)C(=O)N1C(=O)C(F)(F)C1c1ccccc1` (stereo not shown) [Compound 32, 1-(2,2-dimethylbutanoyl)-3,3-difluoro-4-phenylazetidin-2-one], where the note is “range given in nM”, the half-maximal effective concentration (EC50) lay in the range of 0.001 to 1 µM.
As for `CCC(C)(C)C(=O)N1C(=O)CCN1c1ccccc1` [Compound 33, 2-(2,2-dimethylbutanoyl)-1-phenylpyrazolidin-3-one], the half-maximal effective concentration (EC50) under setting [1] was 1 to 100 µM.
Take `CCC(C)(C)C(=O)N1NC(=O)CC1c1ccccc1` (stereo not shown) [Compound 34, 1-(2,2-dimethylbutanoyl)-5-phenylpyrazolidin-3-one]: the EC50 under setting [1] lay in the range of 1 to 100 µM.
For the molecule `O=C(N1CCCC1c1cccc(F)c1)C1(C(F)(F)F)CCCC1` (stereo not shown) [Compound 35, (2-(3-fluorophenyl)pyrrolidin-1-yl)(1-(trifluoromethyl)cyclopentyl)methanone], under “range given in nM”, the EC50 was 0.001 to 1 µM.
Regarding `O=C(N1CCCC1c1cccc(F)c1)C1(C(F)(F)F)CCC1` (stereo not shown) [Compound 36, (2-(3-fluorophenyl)pyrrolidin-1-yl)(1-(trifluoromethyl)cyclobutyl)methanone], where the note is “range given in nM”, the concentration giving a half-maximal response (EC50) lay within 0.001 to 1 µM.
Turning to `O=C(N1CCCC1c1cccc(F)c1)C12CC3CC(CC(C3)C1)C2` (stereo not shown) [Compound 37, adamantan-1-yl(2-(3-fluorophenyl)pyrrolidin-1-yl)methanone], the EC50 under setting [1] lay in the range of 1 to 100 µM.
The same measure, in the same setting: the result for `CC(=O)N1C(=O)OC[C@H]1c1ccccc1` [Compound 39, (R)-3-acetyl-4-phenyloxazolidin-2-one] reads 1 to 10 µM; that for `O=C(C=CCl)N1C(=O)C[C@H]1c1ccccc1` [Compound 40, (S)-1-(3-chloroacryloyl)-4-phenylazetidin-2-one], 1 to 100 µM.
Take `CC(C)(C)[S+]([O-])N1C(=O)C[C@H]1c1ccccc1` (stereo partly drawn) [Compound 41, (4S)-1-(tert-butylsulfinyl)-4-phenylazetidin-2-one]: the concentration giving a half-maximal response (EC50) under setting [1] was in the range of 1 to 100 µM.
Consider `CC(C)S(=O)(=O)N1C(=O)C[C@H]1c1ccccc1` [Compound 42, (S)-1-(isopropylsulfonyl)-4-phenylazetidin-2-one], for which, under setting [1], the EC50 fell in the range of 1 to 100 µM.
`CCS(=O)(=O)N1C(=O)C[C@H]1c1ccccc1` [Compound 43, (S)-1-(ethylsulfonyl)-4-phenylazetidin-2-one]: the 50% effective concentration (EC50) under setting [1] was 1 to 100 µM.
`C#CC(C)(C)C(=O)N1C(=O)CC1c1cccc(N=[N+]=[N-])c1` (stereo not shown) [Compound 44, 4-(3-azidophenyl)-1-(2,2-dimethylbut-3-ynoyl)azetidin-2-one]: the EC50 under setting [1] fell in the range of 1 to 10 µM.
For the molecule `CC(C)(C)S(=O)(=O)N1C(=O)C[C@H]1c1ccccc1` [Compound 45, (S)-1-(tert-butylsulfonyl)-4-phenylazetidin-2-one], under setting [1], the concentration giving a half-maximal response (EC50) fell in the range of 1 to 100 µM.
Consider `C#CC(C)(C)C(=O)N1CC[C@H]1c1ccccc1` [Compound 46, (S)-2,2-dimethyl-1-(2-phenylazetidin-1-yl)but-3-yn-1-one], for which the EC50 (range given in nM) was in the range of 0.001 to 1 µM.
`O=C1C[C@@H](c2ccccc2)N1C(=O)C1C2CC3CC(C2)CC1C3` (stereo partly drawn) [Compound 47, (S)-1-(adamantane-2-carbonyl)-4-phenylazetidin-2-one]: the concentration giving a half-maximal response (EC50) under setting [1] lay within 1 to 10 µM.
Turning to `CCN1C(=O)C[C@H]1c1ccccc1` [Compound 48, (S)-1-ethyl-4-phenylazetidin-2-one], the EC50 under setting [1] is 1 to 100 µM.
The same measure, in the same setting: then `C#CCN1C(=O)C[C@H]1c1ccccc1` [Compound 49, (S)-4-phenyl-1-(prop-2-ynyl)azetidin-2-one], with 1 to 100 µM; and `O=C1C[C@@H](c2ccccc2)N1CC1CC1` [Compound 50, (S)-1-(cyclopropylmethyl)-4-phenylazetidin-2-one], with 1 to 100 µM.
`CCN1C(=O)OC[C@H]1c1ccccc1` [Compound 51, (R)-3-ethyl-4-phenyloxazolidin-2-one]: the EC50 under setting [1] was in the range of 1 to 100 µM.
Take `C#CCN1C(=O)OC[C@H]1c1ccccc1` [Compound 52, (R)-4-phenyl-3-(prop-2-yn-1-yl)oxazolidin-2-one]: under setting [1], the EC50 fell in the range of 1 to 100 µM.
As to `CCC(C)(C)C(=O)N1CCC=C[C@H]1C1CCCCC1` [Compound 53], where the note is “range given in uM”, the EC50 lay within 1 to 1000 µM.
Take `C=CC(C)(C)C(=O)N1CCC=C[C@H]1C1CCCCC1` [Compound 54]: the 50% effective concentration (EC50) (range given in uM) was 1 to 1000 µM.
In the case of `CCC(C)(C)C(=O)N1C=CC=CC1c1ccccc1` (stereo not shown) [Compound 55], the EC50 (range given in uM) was 1 to 1000 µM.
As to `CCC(C)(C)C(=O)N1C=CC=CC1C1CCCCC1` (stereo not shown) [Compound 56], the EC50 (range given in uM) was 1 to 1000 µM.
For the molecule `C=CC(C)(C)C(=O)N1C=CC=C[C@H]1C1CCCCC1` [Compound 57], the EC50 (range given in uM) lay in the range of 1 to 1000 µM.
For `C=CC(C)(C)C(=O)N1C=CC=CC1c1ccccc1` (stereo not shown) [Compound 58], where the note is “range given in uM”, the EC50 lay in the range of 1 to 1000 µM.
Turning to `CCC(C)(C)C(=O)N1CCC1c1cccs1` (stereo not shown) [Compound 59], the EC50 (range given in uM) lay in the range of 1 to 1000 µM.
For the molecule `CCC(C)(C)C(=O)N1CCC1c1ccc(C)s1` (stereo not shown) [Compound 60], the EC50 (range given in uM) lay in the range of 1 to 1000 µM.
